Here are results for 1 molecule from paper PMC11256326, “Discovery of Heparin Mimetic, Potent, and Selective Inhibitors of Human Clotting Factor XIIIa” (ACS Omega, 2024).

Marks after values point to notes of the source that are not given here.

The target of one assay is T1, papain (Carica papaya, UniProt P00784).
T1 construct: purchased Sigma Aldrich
T1 sequence (P00784 134-345): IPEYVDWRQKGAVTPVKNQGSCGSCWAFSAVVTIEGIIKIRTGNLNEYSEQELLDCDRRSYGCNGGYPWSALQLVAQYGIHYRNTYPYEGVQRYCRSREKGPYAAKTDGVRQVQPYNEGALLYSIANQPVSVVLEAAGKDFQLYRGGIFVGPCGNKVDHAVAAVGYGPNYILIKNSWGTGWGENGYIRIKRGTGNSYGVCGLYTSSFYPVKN
Nature of the assay: papain chromogenic substrate assay. In kind it is biochemical. The source says: FXIIIa and TG-2 belong to the same transglutaminase superfamily, and they share similar protein folds with a sequence similarity of 34%. Although we believe that sulfonated heparin mimetics are less likely to distribute to peripheral tissues, we evaluated inhibitor 16′s potential to inhibit TG-2 (we used recombinant TG-2). […] Likewise, we studied the inhibition of papain, a related cysteine protease, by molecule 16.
Direct inhibition of papain, a cysteine protease, by inhibitor 16 was also evaluated using a chromogenic substrate assay on a microplate reader as reported earlier.[36] Briefly, to each well of a 96-well microplate containing 91 μL of 50 mM Tris-HCl buffer, pH 7.4, containing 100 mM NaCl, 2.5 mM CaCl2, 100 mM DTT, 0.1% PEG8000, and 0.02% Tween80 was added 5 μL of inhibitor 16 (0–20 mM) or vehicle, and 3 μL of papain (130 U/mL) at 37 °C. After 5 min incubation, 1 μL of N-α-benzoyl-L-arginine 4-nitroanilide hydrochloride, the chromogenic substrate (17.7 mM) was rapidly added, and the residual enzyme activity was measured from the initial rate of increase in absorbance at 405 nm. Relative residual enzyme activity as a function of the inhibitor concentration was measured and inhibition parameters were calculated using logistic eq 1.

The next assay has as its target T2, FXIIIa (Homo sapiens, UniProt P00488).
T2 construct: purchased Haematologic Technologies; host or cells: human plasma
T2 sequence (P00488 39-732 limits assumed): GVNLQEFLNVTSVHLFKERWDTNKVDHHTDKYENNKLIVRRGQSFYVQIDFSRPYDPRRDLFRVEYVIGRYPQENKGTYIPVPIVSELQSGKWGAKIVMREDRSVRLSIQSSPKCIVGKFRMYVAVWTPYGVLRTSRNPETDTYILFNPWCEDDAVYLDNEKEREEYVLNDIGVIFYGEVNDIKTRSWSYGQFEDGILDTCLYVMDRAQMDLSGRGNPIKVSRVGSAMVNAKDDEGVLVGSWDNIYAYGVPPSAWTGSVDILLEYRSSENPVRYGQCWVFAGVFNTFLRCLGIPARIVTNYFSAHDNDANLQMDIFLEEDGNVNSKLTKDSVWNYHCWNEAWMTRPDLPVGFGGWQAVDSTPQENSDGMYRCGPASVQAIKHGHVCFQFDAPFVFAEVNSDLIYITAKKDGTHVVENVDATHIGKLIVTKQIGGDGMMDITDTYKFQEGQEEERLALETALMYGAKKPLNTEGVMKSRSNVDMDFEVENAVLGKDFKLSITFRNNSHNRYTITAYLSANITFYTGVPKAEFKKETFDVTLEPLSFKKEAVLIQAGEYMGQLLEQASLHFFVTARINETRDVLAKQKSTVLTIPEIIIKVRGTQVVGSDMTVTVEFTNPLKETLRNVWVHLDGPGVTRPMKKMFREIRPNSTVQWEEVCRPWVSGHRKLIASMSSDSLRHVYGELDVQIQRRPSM
Nature of the assay: Michaelis-Menten kinetics of dansylcadaverine and N,N-dimethylcasein conjugation by human FXIIIa. In kind it is biochemical. The settings on record: for VMAX, dansylcadaverine varied: N,N-dimethylcasein 5 mg/mL; for VMAX, dimethylcasein varied: dansylcadaverine 250 μM. Here is the method:
To elucidate the FXIIIa inhibitory capacity of compound 16, the kinetics of dansylcadaverine conjugation with dimethylcasein by FXIIIa were investigated with and without the inhibitor using the bisubstrate fluorescence assay.[36],[49],[55] At a fixed, high concentration of dansylcadaverine (250 μM), the initial rate of conjugation increased in a hyperbolic manner with increasing concentration of dimethylcasein (0–15 mg/mL) (Figure 6A) in the presence as well as absence of inhibitor 16. Analysis using the Michaelis equation led to KM values for dimethylcasein of 0.65 ± 0.04 mg/mL (∼29.5 μM) and 7.54 ± 0.90 mg/mL (∼342.7 μM) in the absence and presence of 16, respectively (Table 4). […] To derive kinetic constants for dansylcadaverine, we used a fixed, high concentration of dimethylcasein (5 mg/mL) and studied the initial rate of conjugation, as described above. […] It is important to note that FXIIIa-mediated reaction is a bisubstrate conjugation reaction and its interaction with inhibitor 16 is sensed differently by the two substrates. […] Yet, for both substrates, there was a similar slight decrease (∼1.5-fold) in the VMAX with the same inhibitor concentration. In these experiments inhibitor 16 was used at varying levels, of which the highest concentration ensured that FXIIIa was essentially fully saturated and inhibited.
The initial rate of FXIIIa-mediated conjugation between dansylcadaverine and N,N-dimethylcasein was determined by monitoring the linear increase in fluorescence at λEM = 550 nm (λEX = 360 nm). This initial rate was assessed as a function of various concentrations of either (1) dansylcadaverine (ranging from 0 to 15 mM; resulting effective concentrations in the well were 0–750 μM) at a fixed saturating concentration of dimethylcasein (5 mg/mL), or (2) dimethylcasein (ranging from 0 to 15 mg/mL) at a fixed concentration of dansylcadaverine (5 mM; resulting effective concentration of 250 μM), both in the absence or presence of inhibitor 16 (at concentrations of 0, 0.5, 2.5, 15, and 25 μM). These assays were conducted in 50 mM Tris-HCl buffer at pH 8.0, containing 100 mM NaCl, 1 mM DTT, and 10 mM CaCl2 at 37 °C. The obtained data were fitted using the standard Michaelis–Menten equation (eq 2) to determine the values of KM and VMAX. [drawing 2] 2

As to `Nc1c(/N=N/c2ccc(S(=O)(=O)CCOS(=O)(=O)O)cc2)c(S(=O)(=O)O)cc2cc(S(=O)(=O)O)c(/N=N/c3ccc(S(=O)(=O)CCOS(=O)(=O)O)cc3)c(O)c12` [compound 16], at papain, the “selectivity for FXIIIa over papain” value is reported as greater than 200 fold. In addition, on papain (500 μM), the “papain inhibition at the highest concentration tested” value was “did not inhibit”. The “mechanism of FXIIIa inhibition (Michaelis–Menten kinetics)” value on FXIIIa is on record as “only competes with the Gln-donor protein substrate”. Moreover, at FXIIIa (16 at 25 μM vs absence), the “decrease in VMAX, dansylcadaverine varied” value was roughly 1.5 fold; the “decrease in VMAX, dimethylcasein varied” value is listed as roughly 1.4 fold; the “decrease in dansylcadaverine binding affinity (KM increase)” value was roughly 2 fold; the “decrease in dimethylcasein binding affinity (KM increase)” value is given as roughly 11.6 fold. Also, at FXIIIa ([16] = 0.5 μM), the “VMAX, dansylcadaverine varied” value is on record as 111.4 ± 4.1 RFU/min (×10^3) and the “VMAX, dimethylcasein varied” value is given as 43.5 ± 2.4 RFU/min (×10^3). In addition, at FXIIIa ([16] = 2.5 μM), the “VMAX, dansylcadaverine varied” value was 89.76 ± 3.8 RFU/min (×10^3) and the “VMAX, dimethylcasein varied” value is reported as 42.0 ± 0.6 RFU/min (×10^3). For the same molecule, on FXIIIa ([16] = 15 μM), the “VMAX, dansylcadaverine varied” value is on record as 81.94 ± 4.0 RFU/min (×10^3) and the “VMAX, dimethylcasein varied” value is listed as 44.5 ± 1.5 RFU/min (×10^3). For the same molecule, at FXIIIa ([16] = 25 μM), the “VMAX, dansylcadaverine varied” value is reported as 69.69 ± 2.9 RFU/min (×10^3) and the “VMAX, dimethylcasein varied” value is 34.9 ± 2.0 RFU/min (×10^3).
